Assay in all cases: growth of human tumour cells (NCI), 48 h
Experiment [1] has as its system DMS-273.
Experiment [2] deals with DMS-114.
The test system of experiment [3] is M19-MEL.
Experiment [4] deals with LXFL 529.
The test system of experiment [5] is HOP-18.
The test system of experiment [6] is KM-20L2.
Experiment [7] has as its system XF498.
Experiment [8] relates to SNB-78.
The subject of experiment [9] is RXF 631.

Here are results for 19 compounds from ChEMBL document CHEMBL1201862, “PubChem BioAssay data set” (2004).

Molecules are shown by their SMILES.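 Following 48 hours of exposure in 96-well plates, responses at five concentrations were used to interpolate endpoints linearly. GI50 = concentration required for 50% inhibition of growth.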 Calls of active or inactive are those of the source. Cut-off read from the data, not from the text of the source: active = GI50 up to about 1.1 µM and inactive = higher.

On to `COc1ccc(OC)c(/C=C2\CCc3ccccc3C2=O)c1`, for which the GI50 in experiment [1] is 1.12 µM (active); in [2] it was 1.92 µM (inactive); in [3], 3.72 µM (inactive); in experiment [4], 6.05 µM (inactive); in experiment [5], 4.85 µM (inactive); in experiment [6], 2.9 µM (inactive). Besides, the GI50 in [7] was 1.24 µM (inactive).
As for `CCC1NCC(=O)c2c1[nH]c1ccccc21` (centres undefined), the GI50 in experiment [1], in experiment [2], in [3], in experiment [8], in experiment [4] and in experiment [5] was > 100 µM (inactive) each time. Also, the GI50 in experiment [6] was > 100 µM (inactive).
On to `CCOc1ccc(O)cc1[P+](c1ccccc1)(c1ccccc1)c1ccccc1`, for which the GI50 in experiment [1] was 2.16 µM (inactive); in [3], 3.05 µM (inactive); in experiment [8], 4.15 µM (inactive); in experiment [4], 1.37 µM (inactive); in experiment [5], 2.91 µM (inactive); in [6], 2.46 µM (inactive). Also, the GI50 in experiment [7] is 1.16 µM (inactive).
As to `CN(C)c1nc(N(C)C)nc(N(C)CN(C)c2nc(N(C)C)nc(N(C)C)n2)n1`, the GI50 was > 100 µM (inactive) in experiment [1]; > 100 µM (inactive) in [2]; > 100 µM (inactive) in experiment [3]; > 100 µM (inactive) in [8]; 77.6 µM (inactive) in experiment [4]; > 100 µM (inactive) in experiment [5]. The GI50 in experiment [6] was > 100 µM (inactive).
Regarding `CCOC(=O)c1c[nH]c2c(ccc3ncccc32)c1=O`, the GI50 in [1], in [2], in experiment [3], in experiment [8], in experiment [4] and in experiment [5] was > 100 µM (inactive) throughout. In addition, in [6], the GI50 is > 100 µM (inactive).
In the case of `C[N+](C)(C)CC(=O)N/N=C(\C(=O)NC1=C(Cl)C(=O)c2ccccc2C1=O)C(C#N)c1nc(-c2ccc([N+](=O)[O-])cc2)cs1` (centres undefined), the GI50 was 9.02 µM (inactive) in experiment [1]; 3.26 µM (inactive) in [2]; 0.889 µM (active) in experiment [3]; 11.3 µM (inactive) in experiment [8]; 7.91 µM (inactive) in experiment [4]; 6.4 µM (inactive) in experiment [5]. Besides, the GI50 is 14 µM (inactive) in experiment [6] and 9.46 µM (inactive) in experiment [7].
As to `COc1cc(C2c3cc4c(cc3[C@@H](NCCN3CCCCC3)C3COC(=O)[C@H]23)OCO4)cc(OC)c1O` (some centres undefined), the GI50 is 0.0726 µM (active) in experiment [1]; 0.805 µM (active) in experiment [3]; 2.57 µM (inactive) in experiment [8]; 1.8 µM (inactive) in experiment [4]; 0.303 µM (active) in experiment [5]; 1.17 µM (inactive) in experiment [6].
For `CCCOC(=O)C1CCC(=O)N1C(=O)C(C)Cl` (centres undefined), the GI50 in [1], in experiment [2], in experiment [3], in experiment [8], in experiment [4] and in experiment [5] was > 100 µM (inactive) in each case. Further, the GI50 in [6] and in [7] was > 100 µM (inactive) in each case.
Consider `Cc1ccc(O)c(/N=N/c2ccc(S(=O)(=O)O)cc2)n1`, for which the GI50 in experiment [1], in experiment [2], in experiment [3], in experiment [4], in [5] and in experiment [6] was > 100 µM (inactive) in each case.
Turning to `CCN(CC)c1ccc(C2N3CCCCC3[C@@H]3c4[nH]c5ccccc5c4CCN23)cc1` (some centres undefined), the GI50 is 32.9 µM (inactive) in experiment [1]; 14 µM (inactive) in [2]; 23.7 µM (inactive) in experiment [3]; 22.1 µM (inactive) in experiment [8]; 21.3 µM (inactive) in experiment [4]; > 100 µM (inactive) in experiment [5]. The values for the GI50 in experiment [6] and in [7] were 29.3 µM (inactive) and 17.1 µM (inactive), respectively.
Take `Cc1ccc2nc(NC(=O)C(=O)CC(=O)c3cccc4ccccc34)sc2c1`: the GI50 in experiment [1] was 40.4 µM (inactive); in experiment [3], 35.5 µM (inactive); in experiment [8], 32.9 µM (inactive); in experiment [4] it was 45.6 µM (inactive); in [5], 24.7 µM (inactive); in [6] it was 46.3 µM (inactive). In addition, the GI50 in [7] is 45.9 µM (inactive).
Regarding `COc1ccc(OC)c(NC(=O)C2=C(C)NC(C)=C(C(=O)Nc3cc(OC)ccc3OC)C2c2ccco2)c1`, the GI50 in [1] was 95.9 µM (inactive); in experiment [2], > 100 µM (inactive); in experiment [3] it was > 100 µM (inactive); in [8], > 100 µM (inactive); in experiment [4], > 100 µM (inactive); in [6], > 100 µM (inactive). Further, the GI50 in experiment [7] was > 100 µM (inactive).
Take `COC(=O)C(=O)C(C#N)c1cccc(Cl)c1` (centres undefined): the GI50 in experiment [1], in [3], in [8], in [4], in experiment [5] and in [6] was > 100 µM (inactive) in each case. In addition, the GI50 in experiment [7] is > 100 µM (inactive).
On to `COC(=O)CC(C(C(=O)OC)C(=O)OC)N1C(=O)OC(c2ccccc2)C1c1ccccc1` (centres undefined), for which the GI50 in experiment [1] was > 100 µM (inactive); in experiment [2] it was 45.6 µM (inactive); in [3] it was > 100 µM (inactive); in [4], > 100 µM (inactive); in experiment [5], > 100 µM (inactive); in experiment [6], > 100 µM (inactive).
With `Cc1c(O)c(=O)ccn1CCO`, the GI50 was > 10 µM (inactive) in experiment [1]; > 100 µM (inactive) in experiment [2]; > 100 µM (inactive) in experiment [3]; > 100 µM (inactive) in experiment [8]; > 100 µM (inactive) in [4]; > 100 µM (inactive) in experiment [5]. Besides, the GI50 in experiment [6] and in experiment [7] was > 100 µM (inactive) throughout.
Turning to `C/C=C(\C)C(=O)N1c2ccccc2CC1c1c(C)[nH]c2ccccc12` (centres undefined), the GI50 was 39.1 µM (inactive) in experiment [1]; 61.7 µM (inactive) in experiment [3]; 86.5 µM (inactive) in experiment [8]; 72.9 µM (inactive) in experiment [4]; 47.4 µM (inactive) in experiment [6]; > 100 µM (inactive) in experiment [9].
`CC1CN1P1(N2CC2C)=NP(N2CC2C)(N2CC2C)=NP(N2CC2C)(N2CC2C)=N1` (centres undefined): the GI50 in experiment [1], in [3], in experiment [4], in [5], in experiment [6] and in experiment [7] was > 50 µM (inactive) throughout.
Turning to `COc1ccc(/C(Cl)=C/c2cc(OC)ccc2OC)cc1`, the GI50 was 35.2 µM (inactive) in experiment [1]; 42.3 µM (inactive) in experiment [2]; 80 µM (inactive) in experiment [3]; 79.6 µM (inactive) in experiment [8]; 72.1 µM (inactive) in experiment [4]; > 100 µM (inactive) in [5]. Further, the values for the GI50 in [6] and in [7] were 93.3 µM (inactive) and 71.3 µM (inactive), respectively.
As to `O=C1CCC(=O)C12CCc1cccc(O)c12`, the GI50 in experiment [1], in experiment [2], in experiment [3], in experiment [8], in experiment [4] and in experiment [5] was > 100 µM (inactive) in each case. For the same compound, the GI50 in [6] and in experiment [7] was > 100 µM (inactive) each time.
